Laboratory results taken from ChEMBL document CHEMBL4732252, “Generating Selective Leads for Mer Kinase Inhibitors-Example of a Comprehensive Lead-Generation Strategy” (J Med Chem, 2021).
In brackets after ≈: the same amount, converted by molar mass.

Columns and labels:
[1] = Distribution coefficient, logD of compound at pH 7.4; type: physicochemical; conditions: octanol/water
[2] = Intrinsic clearance in rat hepatocytes assessed per 10^6 cells; type: ADME, cell-based, Hepatocyte; conditions: read-out: CLH
[3] = Aqueous solubility of the compound; type: physicochemical
[4] = Intrinsic clearance in human liver microsomes; type: ADME, Microsome; conditions: read-out: CLH
[5] = biological target: T1, Tyrosine-protein kinase receptor UFO (Homo sapiens, UniProt P30530); assay: Inhibition of GST-tagged AXL (unknown origin) ([…] residues) using Axltide (CKKSRGDYMTMQJG-acid) peptide as substrate preincubated for 30 mins followed by substrate and ATP addition at Km concentration measured after 40 mins by ADP-Glo Reagent based method
T1 sequence (P30530 whole entry): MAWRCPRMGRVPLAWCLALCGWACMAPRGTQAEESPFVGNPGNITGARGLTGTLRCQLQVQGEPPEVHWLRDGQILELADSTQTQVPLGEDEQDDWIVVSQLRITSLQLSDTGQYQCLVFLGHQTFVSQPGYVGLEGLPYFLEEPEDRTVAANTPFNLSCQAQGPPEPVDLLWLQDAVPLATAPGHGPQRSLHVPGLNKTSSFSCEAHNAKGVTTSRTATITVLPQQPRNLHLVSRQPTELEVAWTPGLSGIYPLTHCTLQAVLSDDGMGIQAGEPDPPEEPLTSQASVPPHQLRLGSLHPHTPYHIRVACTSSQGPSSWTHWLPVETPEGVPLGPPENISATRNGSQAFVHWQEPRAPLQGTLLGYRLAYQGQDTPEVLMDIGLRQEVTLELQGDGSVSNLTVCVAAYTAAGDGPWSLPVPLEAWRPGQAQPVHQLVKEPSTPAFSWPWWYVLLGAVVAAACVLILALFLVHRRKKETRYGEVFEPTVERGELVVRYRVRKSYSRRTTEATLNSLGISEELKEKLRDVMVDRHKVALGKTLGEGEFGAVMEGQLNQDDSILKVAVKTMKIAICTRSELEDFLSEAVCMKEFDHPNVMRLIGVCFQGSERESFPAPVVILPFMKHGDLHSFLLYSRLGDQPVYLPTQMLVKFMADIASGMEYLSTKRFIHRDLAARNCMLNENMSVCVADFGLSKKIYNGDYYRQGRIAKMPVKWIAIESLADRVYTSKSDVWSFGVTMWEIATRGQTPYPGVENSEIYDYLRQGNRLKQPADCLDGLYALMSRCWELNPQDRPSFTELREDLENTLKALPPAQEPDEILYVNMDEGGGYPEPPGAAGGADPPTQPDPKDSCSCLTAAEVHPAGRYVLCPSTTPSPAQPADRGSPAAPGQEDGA

[6] = biological target: T2, Tyrosine-protein kinase Mer (Homo sapiens, UniProt Q12866); assay: Inhibition of 6His/thrombin cleavage site-fused Avi-tagged dephosphorylated MER (unknown origin) (R528 to M999 residues) using Axltide (CKKSRGDYMTMQJG-acid) peptide as substrate preincubated for 30 mins followed by substrate and ATP addition at Km concentration measured after 120 mins by RapidFire LC-MS analysis
T2 sequence (Q12866 whole entry): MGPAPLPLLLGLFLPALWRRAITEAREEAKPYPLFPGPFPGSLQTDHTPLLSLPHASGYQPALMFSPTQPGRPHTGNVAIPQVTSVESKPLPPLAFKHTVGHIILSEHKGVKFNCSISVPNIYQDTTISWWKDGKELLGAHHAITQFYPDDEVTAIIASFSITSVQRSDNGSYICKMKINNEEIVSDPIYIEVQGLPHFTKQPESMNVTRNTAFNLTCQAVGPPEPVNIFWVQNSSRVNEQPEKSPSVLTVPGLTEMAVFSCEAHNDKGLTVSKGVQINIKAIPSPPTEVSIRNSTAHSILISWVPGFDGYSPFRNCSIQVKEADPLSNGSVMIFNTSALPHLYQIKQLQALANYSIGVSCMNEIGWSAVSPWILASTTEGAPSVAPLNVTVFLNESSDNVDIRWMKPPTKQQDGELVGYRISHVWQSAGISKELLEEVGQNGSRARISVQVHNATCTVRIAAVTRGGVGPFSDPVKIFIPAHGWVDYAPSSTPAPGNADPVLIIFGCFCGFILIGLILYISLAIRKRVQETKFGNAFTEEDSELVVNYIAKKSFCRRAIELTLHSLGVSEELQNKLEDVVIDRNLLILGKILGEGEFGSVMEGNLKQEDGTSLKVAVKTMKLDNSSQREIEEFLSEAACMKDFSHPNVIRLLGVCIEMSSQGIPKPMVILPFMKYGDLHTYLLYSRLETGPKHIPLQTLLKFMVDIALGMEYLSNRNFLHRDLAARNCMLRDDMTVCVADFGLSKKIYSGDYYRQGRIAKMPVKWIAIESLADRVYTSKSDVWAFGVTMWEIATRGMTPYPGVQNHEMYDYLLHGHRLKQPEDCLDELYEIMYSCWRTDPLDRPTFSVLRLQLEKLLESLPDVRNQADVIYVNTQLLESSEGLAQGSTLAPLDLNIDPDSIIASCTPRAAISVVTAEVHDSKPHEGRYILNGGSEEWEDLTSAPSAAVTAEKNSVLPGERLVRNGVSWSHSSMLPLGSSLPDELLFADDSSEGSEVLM

[7] = biological target: T3, Receptor-type tyrosine-protein kinase FLT3 (Homo sapiens, UniProt P36888); assay: Inhibition of His6/TEV fused-GST-tagged Flt3 (unknown origin) (H564 to S993 residues) using Axltide (CKKSRGDYMTMQJ-acid) peptide as substrate preincubated for 30 mins followed by substrate addition in presence of ATP and measured for 90 mins by ADP-Glo Reagent based method
T3 sequence (P36888 whole entry): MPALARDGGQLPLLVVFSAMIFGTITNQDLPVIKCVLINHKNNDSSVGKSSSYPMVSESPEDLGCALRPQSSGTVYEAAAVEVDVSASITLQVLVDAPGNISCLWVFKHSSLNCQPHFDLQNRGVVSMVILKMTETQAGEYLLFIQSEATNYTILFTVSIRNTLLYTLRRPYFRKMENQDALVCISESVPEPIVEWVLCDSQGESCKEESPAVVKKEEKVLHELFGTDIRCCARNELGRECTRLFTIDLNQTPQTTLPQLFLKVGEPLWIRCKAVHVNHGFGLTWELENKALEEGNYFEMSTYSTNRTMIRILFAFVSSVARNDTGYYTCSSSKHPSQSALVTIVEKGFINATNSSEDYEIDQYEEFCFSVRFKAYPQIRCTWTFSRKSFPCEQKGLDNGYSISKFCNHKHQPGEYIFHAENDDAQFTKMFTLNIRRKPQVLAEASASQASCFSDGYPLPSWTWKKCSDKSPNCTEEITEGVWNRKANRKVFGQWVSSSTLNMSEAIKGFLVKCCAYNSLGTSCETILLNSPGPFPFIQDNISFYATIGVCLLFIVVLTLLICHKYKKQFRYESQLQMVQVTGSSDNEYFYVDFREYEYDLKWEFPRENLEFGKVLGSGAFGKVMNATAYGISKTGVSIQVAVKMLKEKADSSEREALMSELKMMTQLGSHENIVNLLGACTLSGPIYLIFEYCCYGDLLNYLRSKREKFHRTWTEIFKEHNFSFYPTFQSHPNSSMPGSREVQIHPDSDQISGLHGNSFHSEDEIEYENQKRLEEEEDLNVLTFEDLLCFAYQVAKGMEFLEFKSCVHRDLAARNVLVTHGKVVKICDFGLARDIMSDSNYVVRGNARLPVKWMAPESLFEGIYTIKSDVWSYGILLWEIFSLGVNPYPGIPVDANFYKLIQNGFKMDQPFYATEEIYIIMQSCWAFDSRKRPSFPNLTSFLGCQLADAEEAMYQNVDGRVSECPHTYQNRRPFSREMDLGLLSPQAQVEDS

[8] = biological target: T1, Tyrosine-protein kinase receptor UFO; assay: Inhibition of GST-tagged AXL (unknown origin) ([…] residues) using Axltide (CKKSRGDYMTMQJG-acid) peptide as substrate preincubated for 30 mins followed by substrate and ATP addition at Km concentration measured after 180 mins by RapidFire LC-MS analysis
[9] = biological target: T3, Receptor-type tyrosine-protein kinase FLT3; assay: Inhibition of His6/TEV fused-GST-tagged Flt3 (unknown origin) (H564 to S993 residues) using Axltide (CKKSRGDYMTMQJ-acid) peptide as substrate preincubated for 30 mins followed by substrate and ATP addition at Km concentration measured after 75 mins by RapidFire LC-MS analysis

logD [1]	hepatocyte CLint [2] [µL/min/1e6 cells]	solubility [3] [µM]	microsomal CLint [4] [µL/min/mg]	IC50 [5] [nM]	IC50 [6] [nM]	IC50 [7] [nM]	IC50 [8] [nM]	IC50 [9] [nM]	Structure (SMILES)
1.8	< 1	1000 (≈ 517 µg/mL)	< 3	126	100	10000	–	–	COc1cc2c(Nc3cnc(NC(=O)c4cccn4C)nc3)ncnc2cc1OCCCNC1CCCC1
4.5	9	3 (≈ 1.78 µg/mL)	16	–	6.31	–	398	3.16	O=C(Nc1ccc(Oc2cc(NC(=O)C3CC3)ncn2)cc1)Nc1ccc(CN2CCn3ccnc3C2)c(C(F)(F)F)c1
4.5	2	130 (≈ 67.7 µg/mL)	96	–	0.794	–	10	20	COc1cc2c(Nc3cnc(OCCCC4CCCC4)nc3)ncnc2cc1OCCCN1CCCCC1
4.2	130	10 (≈ 3.55 µg/mL)	37	31600	794	> 79400	–	–	CNC(=O)c1cnc(Nc2ccc(OC)cc2C)nc1NC1CCCC1
4.3	190	9 (≈ 3.23 µg/mL)	240	794	126	100000	–	–	CNc1nc(OC2CCCC2)nc2c1ncn2Cc1c(F)cccc1F
2.8	32	27 (≈ 10 µg/mL)	5	–	398	–	1580	1260	CS(=O)(=O)c1cnc(Nc2ccc(O)cc2)nc1NCc1ccccc1
